This assay has as its system anti-EGF rabbit polyclonal antibodies (Abcam 9695). The assay can be described thus: Dot blot of cellulose-immobilized EGF decapeptides with anti-EGF polyclonal antibodies.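 As to Intensity (Staining Value): higher gray value means stronger antibody binding with above 120 very strong.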 The conditions noted are these: for Intensity (ability to interact with polyclonal antibodies) / interaction with polyclonal anti-EGF antibodies (in words): peptide on cellulose matrix; for Intensity (ability to interact with polyclonal antibodies): antibody 1:1000, 1 h room temperature; for Intensity (Staining Value): scanned spot, 256 gray scale (ImageJ). In kind it is binding. As to the method:
Dot blot reactions were performed using primary anti-EGF rabbit polyclonal antibodies (Abcam 9695) (Cambridge, UK) and secondary goat anti-rabbit antibodies conjugated with HRP (Abcam 205718). The procedure for using the dot blot method to analyze peptides immobilized on a cellulose matrix through a triazine linker was optimized in a previous study by the authors and ensures the elimination of non-specific impacts.
The solution was then removed, and the membranes were treated overnight at room temperature with blocking buffer (3% BSA in PBS, 40 mL, pH 7.4). The cellulose sheets were then washed with PBS buffer (40 mL, 5 min, pH 7.4). […] The membranes were then washed with Tween-80 solution in PBS (0.4%, 40 mL, 2 × 5 min) and PBS (40 mL, 5 min). Goat Anti-Rabbit IgG antibodies were conjugated with HRP (Abcam 205718, 20 μL) diluted 1:1000 in 1% BSA in PBS (20 mL, pH 7.4) and then incubated with cellulose sheets for 30 min at room temperature. The membranes were then washed with Tween-80 solution in PBS (0.4%, 40 mL, 2 × 5 min) and PBS (40 mL, 5 min). Visualization of the reactions was performed using 4-chloro-1-naphtol (Sigma–Aldrich). The cellulose sheets were placed into 0.15 mg/mL solution of 4-chloro-1-naphtol in MeOH:PBS (1:5, 15 mL) with the addition of 7.5 μL of H2O2; reaction time was 30 min. The membranes were washed with distilled water, air-dried, and scanned. In places where immunological complexes developed, blue precipitate was observed. The applied dot blot test procedure ensures the elimination of non-specific interactions. Additionally, using the same SPOT synthesis procedure, a library of type IV collagen fragments was obtained. […] The gray levels of the immunological reactions were determined using ImageJ Version 1.53n7 (https://imagej.nih.gov/ij/index.html, accessed on 17 October 2021) computer imaging software.

As for H-^1NSDSECPLSH^10-matrix [A1], the “Intensity (ability to interact with polyclonal antibodies)” value was “− ((−), where the color intensity value was <45)” and the “Intensity (Staining Value)” value came to 14.8.
In the case of H-^2SDSECPLSHD^11-matrix [A2], the “Intensity (ability to interact with polyclonal antibodies)” value is “− ((−), where the color intensity value was <45)” and the “Intensity (Staining Value)” value turned out to be 22.3.
As for H-^3DSECPLSHDG^12-matrix [A3], the “Intensity (ability to interact with polyclonal antibodies)” value is “+/− (moderately strong (+/−), for which the color intensity value was in the range of 90–45)” and the “Intensity (Staining Value)” value stood at 71.7.
With H-^4SECPLSHDGY^13-matrix [A4], the “Intensity (ability to interact with polyclonal antibodies)” value is recorded as “+/− (moderately strong (+/−), for which the color intensity value was in the range of 90–45)” and the “Intensity (Staining Value)” value is reported as 55.2.
Consider H-^5ECPLSHDGYC^14-matrix [A5], for which the “Intensity (ability to interact with polyclonal antibodies)” value is listed as “+/− (moderately strong (+/−), for which the color intensity value was in the range of 90–45)”.
With H-^6CPLSHDGYCL^15-matrix [A6], the “Intensity (ability to interact with polyclonal antibodies)” value is on record as “+/− (moderately strong (+/−), for which the color intensity value was in the range of 90–45)”.
In the case of H-^7PLSHDGYCLH^16-matrix [A7], the “Intensity (ability to interact with polyclonal antibodies)” value is on record as “+/− (moderately strong (+/−), for which the color intensity value was in the range of 90–45)” and the “Intensity (Staining Value)” value amounted to 62.2.
In the case of H-^8LSHDGYCLHD^17-matrix [A8], the “Intensity (ability to interact with polyclonal antibodies)” value is listed as “+/− (moderately strong (+/−), for which the color intensity value was in the range of 90–45)” and the “Intensity (Staining Value)” value is reported as 59.3.
Consider H-^9SHDGYCLHDG^18-matrix [A9], for which the “Intensity (ability to interact with polyclonal antibodies)” value is “+/− (moderately strong (+/−), for which the color intensity value was in the range of 90–45)” and the “Intensity (Staining Value)” value was determined as 63.8.
On to H-^10HDGYCLHDGV^19-matrix [A10], for which the “Intensity (ability to interact with polyclonal antibodies)” value is “+ (strong (+), for which the staining intensity value was in the range of 120–90)” and the “Intensity (Staining Value)” value was 91.3.
Take H-^11DGYCLHDGVC^20-matrix [A11]: the “Intensity (ability to interact with polyclonal antibodies)” value is given as “+ (strong (+), for which the staining intensity value was in the range of 120–90)” and the “Intensity (Staining Value)” value is 90.5.
Take H-^12GYCLHDGVCM^21-matrix [A12]: the “Intensity (ability to interact with polyclonal antibodies)” value is “+ (strong (+), for which the staining intensity value was in the range of 120–90)” and the “Intensity (Staining Value)” value is reported as 92.4.
For H-^13YCLHDGVCMY^22-matrix [A13], the “Intensity (ability to interact with polyclonal antibodies)” value is “+ (strong (+), for which the staining intensity value was in the range of 120–90)” and the “Intensity (Staining Value)” value is on record as 93.0.
Consider H-^14CLHDGVCMYI^23-matrix [A14], for which the “interaction with polyclonal anti-EGF antibodies (in words)” value (“interaction” for short) was “inactive”; the “Intensity (ability to interact with polyclonal antibodies)” value is “− ((−), where the color intensity value was <45)”; the “Intensity (Staining Value)” value is reported as 31.6.
With H-^15LHDGVCMYIE^24-matrix [A15], the “interaction” value was “no affinity for antibodies”; the “Intensity (ability to interact with polyclonal antibodies)” value is reported as “− ((−), where the color intensity value was <45)”; the “Intensity (Staining Value)” value is given as 41.6.
Consider H-^16HDGVCMYIEA^25-matrix [A16], for which the “interaction” value was “low affinity”; the “Intensity (ability to interact with polyclonal antibodies)” value is given as “− ((−), where the color intensity value was <45)”; the “Intensity (Staining Value)” value amounted to 44.8.
For the substance H-^17DGVCMYIEAL^26-matrix [A17], the “Intensity (ability to interact with polyclonal antibodies)” value is given as “+/− (moderately strong (+/−), for which the color intensity value was in the range of 90–45)” and the “Intensity (Staining Value)” value was determined as 88.9.
For H-^18GVCMYIEALD^27-matrix [A18], the “Intensity (ability to interact with polyclonal antibodies)” value is on record as “+ (strong (+), for which the staining intensity value was in the range of 120–90)” and the “Intensity (Staining Value)” value turned out to be 116.0.
Take H-^19VCMYIEALDK^28-matrix [A19]: the “Intensity (ability to interact with polyclonal antibodies)” value is listed as “++ (very strong (++), for which the staining intensity value was >120)” and the “Intensity (Staining Value)” value stood at 128.0.
For the substance H-^20CMYIEALDKY^29-matrix [A20], the “Intensity (ability to interact with polyclonal antibodies)” value is given as “++ (very strong (++), for which the staining intensity value was >120)” and the “Intensity (Staining Value)” value came to 132.8.
With H-^21MYIEALDKYA^30-matrix [B1], the “Intensity (ability to interact with polyclonal antibodies)” value was “++ (very strong (++), for which the staining intensity value was >120)” and the “Intensity (Staining Value)” value was found to be 130.3.
Turning to H-^22YIEALDKYAC^31-matrix [B2], the “Intensity (ability to interact with polyclonal antibodies)” value is reported as “++ (very strong (++), for which the staining intensity value was >120)” and the “Intensity (Staining Value)” value is given as 122.4.
Take H-^23IEALDKYACN^32-matrix [B3]: the “interaction” value was “lower affinity for antibodies”; the “Intensity (ability to interact with polyclonal antibodies)” value was “+/− (moderately strong (+/−), for which the color intensity value was in the range of 90–45)”; the “Intensity (Staining Value)” value is reported as 63.8.
As for H-^24EALDKYACNC^33-matrix [B4], the “interaction” value is given as “no affinity for antibodies”; the “Intensity (ability to interact with polyclonal antibodies)” value is “− ((−), where the color intensity value was <45)”; the “Intensity (Staining Value)” value came to 30.5.
Consider H-^25ALDKYACNCV^34-matrix [B5], for which the “Intensity (ability to interact with polyclonal antibodies)” value was “− ((−), where the color intensity value was <45)” and the “Intensity (Staining Value)” value is 29.6.
On to H-^26LDKYACNCVV^35-matrix [B6], for which the “Intensity (ability to interact with polyclonal antibodies)” value is recorded as “+/− (moderately strong (+/−), for which the color intensity value was in the range of 90–45)” and the “Intensity (Staining Value)” value turned out to be 46.6.
H-^27DKYACNCVVG^36-matrix [B7]: the “Intensity (ability to interact with polyclonal antibodies)” value was “+/− (moderately strong (+/−), for which the color intensity value was in the range of 90–45)” and the “Intensity (Staining Value)” value was 55.3.
Take H-^28KYACNCVVGY^37-matrix [B8]: the “Intensity (ability to interact with polyclonal antibodies)” value is recorded as “+/− (moderately strong (+/−), for which the color intensity value was in the range of 90–45)” and the “Intensity (Staining Value)” value worked out at 63.5.
Take H-^29YACNCVVGYI^38-matrix [B9]: the “Intensity (ability to interact with polyclonal antibodies)” value is listed as “+ (strong (+), for which the staining intensity value was in the range of 120–90)” and the “Intensity (Staining Value)” value is 91.1.
Turning to H-^30ACNCVVGYIG^39-matrix [B10], the “Intensity (ability to interact with polyclonal antibodies)” value is “+/− (moderately strong (+/−), for which the color intensity value was in the range of 90–45)” and the “Intensity (Staining Value)” value came to 58.5.
With H-^31CNCVVGYIGE^40-matrix [B11], the “Intensity (ability to interact with polyclonal antibodies)” value is given as “+/− (moderately strong (+/−), for which the color intensity value was in the range of 90–45)” and the “Intensity (Staining Value)” value was found to be 60.3.
As for H-^32NCVVGYIGER^41-matrix [B12], the “Intensity (ability to interact with polyclonal antibodies)” value is on record as “+/− (moderately strong (+/−), for which the color intensity value was in the range of 90–45)” and the “Intensity (Staining Value)” value turned out to be 56.3.
As for H-^33CVVGYIGERC^42-matrix [B13], the “Intensity (ability to interact with polyclonal antibodies)” value is on record as “+/− (moderately strong (+/−), for which the color intensity value was in the range of 90–45)” and the “Intensity (Staining Value)” value is reported as 65.7.
In the case of H-^34VVGYIGERCQ^43-matrix [B14], the “Intensity (ability to interact with polyclonal antibodies)” value is listed as “+/− (moderately strong (+/−), for which the color intensity value was in the range of 90–45)” and the “Intensity (Staining Value)” value is 69.4.
With H-^35VGYIGERCQY^44-matrix [B15], the “Intensity (ability to interact with polyclonal antibodies)” value is on record as “+ (strong (+), for which the staining intensity value was in the range of 120–90)” and the “Intensity (Staining Value)” value was 91.0.
Regarding H-^36GYIGERCQYR^45-matrix [B16], the “Intensity (ability to interact with polyclonal antibodies)” value was “+ (strong (+), for which the staining intensity value was in the range of 120–90)” and the “Intensity (Staining Value)” value is reported as 98.0.
On to H-^37YIGERCQYRD^46-matrix [B17], for which the “Intensity (ability to interact with polyclonal antibodies)” value is on record as “+ (strong (+), for which the staining intensity value was in the range of 120–90)” and the “Intensity (Staining Value)” value turned out to be 106.2.
As to H-^38IGERCQYRDL^47-matrix [B18], the “Intensity (ability to interact with polyclonal antibodies)” value was “+/− (moderately strong (+/−), for which the color intensity value was in the range of 90–45)” and the “Intensity (Staining Value)” value is given as 76.1.

The record behind these values is PMC10855902 (International Journal of Molecular Sciences, 2024).
